How the values were obtained:
[1] = system: Wistar, adult, male, rats; test: induction of status epilepticus by systemic pilocarpine; format: in vivo; conditions: pilocarpine 320 mg/Kg intraperitoneal, average
Description: (§1) Biperiden, together with atropine, is a classic cholinergic antagonist and is known to block muscarinic receptors. These drugs are known by their abilities in blocking the cholinergic transmission which is otherwise mediated through muscarinic receptors. For our experiments we used Wistar, adult, male, rats which were maintained under controled conditions of temperature, light/dark cylces and kept in groups of up to 6 animals in polypropilene boxes with free access to tap water and rat chow pellets. Rats were subject to the intraperitoneal administration of pilocarpine in a dose of 320 mg/Kg for the induction of status epilepticus.
As expected, the systemic administration of pilocarpine lead to a sequence of behavioral alterations such as akinesia, body tremor and/or myoclonic jerks of the head and oro-facial stereotyped movements accompained by profuse salivation. Status epilepticus, a condition of uninterrupt epileptic seizure, developed on average 19 ± 5 min after the injetion of pilocarpine. Three hours after the onset of status epilepticus the animals in the experimental group (n=10) were intraperitoneally injected with the first initial dose of biperiden (8 mg/kg). […]

[2] = system: Wistar, adult, male, rats; test: pilocarpine model of epilepsy: video monitoring of spontaneous epileptic seizures after status epilepticus; format: in vivo
Description: The current invention was based on an experimental model of epilepsy in which in rats the induction of a brain lesion is accomplished through the administration of pilocarpine, a cholinergic agonist. According to the original description of this model, approximately 20-30 days after pilocarpine injection in either rats or mice, there is the onset of spontaneous recurrent epileptic seizures (Turski WA, Cavalheiro EA, Schwarz M, Czuczwar SJ, Kleinrok Z and Turski L. Limbic seizures produced by pilocarpine in rats: behavioural, electroencephalographic and neuropathological study. Behavioral Brain Research, 9:315-335, 1983; Mello LEAM, Cavalheiro EA, Babb TL, Kupfer WR, Pretorius JK, Tan AM and Finch. DM. Circuit mechanisms of seizures in the pilocarpine model of chronic epilepsy: cell loss and mossy fiber sprouting. Epilepsia 34:985-995, 1993). Due to its special features the pilocarpine model is currently one of the 3 most widely used experimental models in the study of epilepsy.
as §1
As expected, the systemic administration of pilocarpine lead to a sequence of behavioral alterations such as akinesia, body tremor and/or myoclonic jerks of the head and oro-facial stereotyped movements accompained by profuse salivation. Status epilepticus, a condition of uninterrupt epileptic seizure, developed on average 19 ± 5 min after the injetion of pilocarpine. Three hours after the onset of status epilepticus the animals in the experimental group (n=10) were intraperitoneally injected with the first initial dose of biperiden (8 mg/kg). This dose represents the concentration needed to provoke memory impairments in rodents (Roldan G, Bolanos-Badillo E, Gonzales-Sanches H, Quirarte GL and Prado-Alcala RA JW. Selective M1 muscarinic receptor antagonists disrupt memory consolidation of inhibitory avoidance in rats. Neurosci. Lett., 230:93-6, 1997).
For the animals in the control group (n=6), […] after the onset of status epileticus, administration of sterile saline solution (0.9% NaCl), rather than biperiden, was started with a similar protocol.
In the pilocarpine model of epilepsy, a few weeks after the administration of pilocarpine and the induction of status epilepticus, the animals develop spontaneous epileptic seizures which reccur for as long as the animal are allowed to live. […]
Approximately 15 to 20 days after the induction of status epilepticus, the reported duration of the latent period for the onset of spontaneous seizures, monitoring of the behavioral seizures with a videocamera for approximately 12 hours/week was initiated. […] Animals were video monitored for approximately 120 days after the induction of status epilepticus. The recorded video tapes were routinelly assessed in a 29 inches wide television screen and the seizures observed for each animal were recorded.

SMILES	time to development of status epilepticus after the injection of pilocarpine [1]	qualitative or quantitative nature of each individual seizure, biperiden-treated vs control group ([2]; comparison between the two groups)	onset of spontaneous recurrent seizures after prophylactic use following pilocarpine lesion ([2]; prophylactic use after pilocarpine lesion, vs animals not treated with biperiden)	mean frequency of spontaneous epileptic seizures, control group relative to experimental group (treated with biperiden) ([2]; ratio control / biperiden-treated group, Table 2)	Spontaneous seizures/h ([2]; rats, pilocarpine 320 mg/Kg i.p., biperiden 8 mg/kg i.p. every 8 hours for 10 days, n=10, video monitored about 120 days, mean ± standard deviation, p < 0.02 vs control (0.0401 ± 0.0113))	Latency (weeks): length of the latent period for the onset of the first recorded spontaneous epileptic seizure ([2]; rats, pilocarpine 320 mg/Kg i.p., biperiden 8 mg/kg i.p. starting 3 h after onset of status epilepticus, every 8 hours for 10 days, n=10, mean ± standard deviation, p < 0.03 vs control (3.2 ± 1.1))
CC[C@@H]1C(=O)OC[C@@H]1Cc1cncn1C [pilocarpine]	19 ± 5 min					
OC(CCN1CCCCC1)(c1ccccc1)C1CC2C=CC1C2 (stereo not drawn) [biperiden]		no differences	significantly retarded or even supressed the onset of spontaneous recurrent seizures	2 times higher	0.0202 ± 0.0047 seizures/h	6.0 ± 1.1 weeks

Reference: patent EP1599197B1, “THE USE OF ANTIMUSCARINIC DRUGS” (FAPESP-Fundacao de Amparo a Pesquisa do Estado de SP, priority 2003, dated 2004)
